# Reference: ChEMBL document CHEMBL1201862, “PubChem BioAssay data set” (2004)
# Active and inactive are the calls of the source.
# Columns and labels:
# [1] = target: CAAX prenyl protease 1 (Saccharomyces cerevisiae S288c, UniProt P47154); assay: yeast CAAX protease Ste24 inhibition – biochemical, S. cerevisiae, plate reader, cherry-pick, dose response (AID 488815)
# [2] = target: Trypsin (Sus scrofa, UniProt P00761); assay: trypsin protease activity blockade – biochemical, quenched peptide fluorescence, cherry-pick, selectivity assay for Rce1 protease inhibitor project, dose response (AID 488789)
# [3] = target: Sphingosine 1-phosphate receptor 1 (Homo sapiens, UniProt P21453); assay: Late stage counterscreen assay for S1P4 antagonists: Fluorescence dose response cell-based screening assay for antagonists of the Sphingosine 1-Phosphate Receptor 1 (S1P1). [Related pubchem assays (depositor defined):AID1510, AID1524, AID1692, AID1853, AID2332, AID489009, AID489017]; assay type: functional
# Sequence of Sphingosine 1-phosphate receptor 1 (P21453 whole entry): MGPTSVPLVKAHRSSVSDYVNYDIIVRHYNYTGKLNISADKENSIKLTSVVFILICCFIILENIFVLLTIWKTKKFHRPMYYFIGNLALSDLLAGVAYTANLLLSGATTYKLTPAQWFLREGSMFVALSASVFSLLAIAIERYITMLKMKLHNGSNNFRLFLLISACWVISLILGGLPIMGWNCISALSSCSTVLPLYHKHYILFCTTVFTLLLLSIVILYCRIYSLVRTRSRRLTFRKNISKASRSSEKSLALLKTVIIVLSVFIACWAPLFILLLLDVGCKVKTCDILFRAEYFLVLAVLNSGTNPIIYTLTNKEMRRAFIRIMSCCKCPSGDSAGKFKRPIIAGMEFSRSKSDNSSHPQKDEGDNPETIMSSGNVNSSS
# [4] = target: Sphingosine 1-phosphate receptor 3 (Homo sapiens, UniProt Q99500); assay: Late stage counterscreen assay for S1P4 antagonists: Fluorescence dose response cell-based screening assay for antagonists of the Sphingosine 1-Phosphate Receptor 3 (S1P3). [Related pubchem assays (depositor defined):AID1510, AID1524, AID1692, AID1853, AID2332, AID489009, AID489017]; assay type: functional
# Sequence of Sphingosine 1-phosphate receptor 3 (Q99500 whole entry): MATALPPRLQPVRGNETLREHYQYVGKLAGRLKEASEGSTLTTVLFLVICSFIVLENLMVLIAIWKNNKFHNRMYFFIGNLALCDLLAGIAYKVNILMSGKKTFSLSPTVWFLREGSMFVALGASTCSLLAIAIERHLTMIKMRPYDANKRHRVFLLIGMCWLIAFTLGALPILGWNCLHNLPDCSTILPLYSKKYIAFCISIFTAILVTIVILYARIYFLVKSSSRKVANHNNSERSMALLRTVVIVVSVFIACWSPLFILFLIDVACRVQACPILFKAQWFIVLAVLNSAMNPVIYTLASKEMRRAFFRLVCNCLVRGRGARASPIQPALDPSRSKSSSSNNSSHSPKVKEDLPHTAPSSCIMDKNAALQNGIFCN
# [5] = target: Sphingosine 1-phosphate receptor 2 (Homo sapiens, UniProt O95136); assay: Late stage counterscreen assay for S1P4 antagonists: Fluorescence dose response cell-based screening assay for antagonists of the Sphingosine 1-Phosphate Receptor 2 (S1P2). [Related pubchem assays (depositor defined):AID1510, AID1524, AID1692, AID1853, AID2332, AID489009, AID489017]; assay type: functional
# Sequence of Sphingosine 1-phosphate receptor 2 (O95136 whole entry): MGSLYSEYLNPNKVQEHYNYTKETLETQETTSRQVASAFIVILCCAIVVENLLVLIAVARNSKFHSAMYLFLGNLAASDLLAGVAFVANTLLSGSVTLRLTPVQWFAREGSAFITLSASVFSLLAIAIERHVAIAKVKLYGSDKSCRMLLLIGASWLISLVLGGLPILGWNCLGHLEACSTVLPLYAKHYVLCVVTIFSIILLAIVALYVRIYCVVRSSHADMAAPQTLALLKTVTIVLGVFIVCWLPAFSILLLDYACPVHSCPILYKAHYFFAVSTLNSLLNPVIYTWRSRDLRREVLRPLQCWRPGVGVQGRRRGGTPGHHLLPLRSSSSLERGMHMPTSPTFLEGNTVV
# [6] = target: Sphingosine 1-phosphate receptor 5 (Homo sapiens, UniProt Q9H228); assay: Late stage counterscreen assay for S1P4 antagonists: Fluorescence dose response cell-based screening assay for antagonists of the Sphingosine 1-Phosphate Receptor 5 (S1P5). [Related pubchem assays (depositor defined):AID1510, AID1524, AID1692, AID1853, AID2332, AID489009, AID489017]; assay type: functional
# Sequence of Sphingosine 1-phosphate receptor 5 (Q9H228 whole entry): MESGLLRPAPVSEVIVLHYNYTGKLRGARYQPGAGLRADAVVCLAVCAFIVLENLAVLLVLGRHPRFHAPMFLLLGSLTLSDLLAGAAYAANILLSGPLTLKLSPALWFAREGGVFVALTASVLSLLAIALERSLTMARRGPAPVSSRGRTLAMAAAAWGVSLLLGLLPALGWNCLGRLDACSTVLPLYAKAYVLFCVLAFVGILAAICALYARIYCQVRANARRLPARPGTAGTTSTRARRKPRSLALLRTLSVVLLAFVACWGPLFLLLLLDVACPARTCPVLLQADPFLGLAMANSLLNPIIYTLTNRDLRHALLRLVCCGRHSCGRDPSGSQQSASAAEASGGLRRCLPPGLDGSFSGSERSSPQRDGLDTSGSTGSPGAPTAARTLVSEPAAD
# [7] = target: T1, High affinity choline transporter 1 (Homo sapiens, UniProt Q9GZV3); assay: human choline transporter blockers, potency – cell-based, 5-point CRC, membrane potential dye, dose response (AID 504840); assay type: functional
# T1 sequence (Q9GZV3 whole entry): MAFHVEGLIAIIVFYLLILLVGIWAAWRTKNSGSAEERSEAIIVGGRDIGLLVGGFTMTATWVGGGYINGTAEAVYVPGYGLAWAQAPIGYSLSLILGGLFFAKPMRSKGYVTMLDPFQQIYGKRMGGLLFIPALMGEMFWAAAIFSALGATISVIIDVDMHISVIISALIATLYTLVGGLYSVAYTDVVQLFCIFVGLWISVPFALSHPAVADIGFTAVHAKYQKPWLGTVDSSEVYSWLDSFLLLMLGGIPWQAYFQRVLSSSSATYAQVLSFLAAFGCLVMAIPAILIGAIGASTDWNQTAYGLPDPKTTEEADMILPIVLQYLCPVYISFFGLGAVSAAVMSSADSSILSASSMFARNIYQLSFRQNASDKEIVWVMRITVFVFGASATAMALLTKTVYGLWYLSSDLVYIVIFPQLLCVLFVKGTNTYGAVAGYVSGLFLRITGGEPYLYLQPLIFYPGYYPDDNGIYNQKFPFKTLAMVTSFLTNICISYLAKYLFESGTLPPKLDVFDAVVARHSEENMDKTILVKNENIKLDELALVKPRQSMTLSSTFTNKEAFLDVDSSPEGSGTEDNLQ
# [8] = Counterscreen for AddAB inhibitors: absorbance-based bacterial cell-based high throughput dose response assay for inhibitors of bacterial viability. [Related pubchem assays (depositor defined):AID435030, AID449728, AID449731, AID488942, AID488955, AID488956]; assay type: functional
# [9] = target: Exodeoxyribonuclease V (Escherichia coli (strain K12), UniProt P04993+P07648+P08394); assay: RecBCD inhibition via phage-restricted bacterial growth – absorbance, V66 E. coli, mutant T4 phage, counter-screen for AddAB inhibitor project, dose response (AID 492957); assay type: functional, cell-based, Escherichia coli str. K-12 substr. MG1655
# Sequence of Exodeoxyribonuclease V (P04993 whole entry): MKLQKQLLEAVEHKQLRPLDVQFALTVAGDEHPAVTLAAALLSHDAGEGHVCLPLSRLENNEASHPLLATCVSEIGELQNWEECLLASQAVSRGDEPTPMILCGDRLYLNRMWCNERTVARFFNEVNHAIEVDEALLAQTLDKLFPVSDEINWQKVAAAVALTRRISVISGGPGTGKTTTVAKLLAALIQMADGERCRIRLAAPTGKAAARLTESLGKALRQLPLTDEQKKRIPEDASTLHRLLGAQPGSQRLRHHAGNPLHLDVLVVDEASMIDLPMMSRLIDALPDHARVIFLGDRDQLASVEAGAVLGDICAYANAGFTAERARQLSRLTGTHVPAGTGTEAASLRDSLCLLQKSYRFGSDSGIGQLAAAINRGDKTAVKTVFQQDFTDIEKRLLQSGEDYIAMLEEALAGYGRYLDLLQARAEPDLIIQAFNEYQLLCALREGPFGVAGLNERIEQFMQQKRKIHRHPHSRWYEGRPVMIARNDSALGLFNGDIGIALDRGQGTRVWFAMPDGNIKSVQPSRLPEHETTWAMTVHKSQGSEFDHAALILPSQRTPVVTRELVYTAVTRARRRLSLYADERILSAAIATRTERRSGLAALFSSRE
# Sequence of Exodeoxyribonuclease V (P07648 whole entry): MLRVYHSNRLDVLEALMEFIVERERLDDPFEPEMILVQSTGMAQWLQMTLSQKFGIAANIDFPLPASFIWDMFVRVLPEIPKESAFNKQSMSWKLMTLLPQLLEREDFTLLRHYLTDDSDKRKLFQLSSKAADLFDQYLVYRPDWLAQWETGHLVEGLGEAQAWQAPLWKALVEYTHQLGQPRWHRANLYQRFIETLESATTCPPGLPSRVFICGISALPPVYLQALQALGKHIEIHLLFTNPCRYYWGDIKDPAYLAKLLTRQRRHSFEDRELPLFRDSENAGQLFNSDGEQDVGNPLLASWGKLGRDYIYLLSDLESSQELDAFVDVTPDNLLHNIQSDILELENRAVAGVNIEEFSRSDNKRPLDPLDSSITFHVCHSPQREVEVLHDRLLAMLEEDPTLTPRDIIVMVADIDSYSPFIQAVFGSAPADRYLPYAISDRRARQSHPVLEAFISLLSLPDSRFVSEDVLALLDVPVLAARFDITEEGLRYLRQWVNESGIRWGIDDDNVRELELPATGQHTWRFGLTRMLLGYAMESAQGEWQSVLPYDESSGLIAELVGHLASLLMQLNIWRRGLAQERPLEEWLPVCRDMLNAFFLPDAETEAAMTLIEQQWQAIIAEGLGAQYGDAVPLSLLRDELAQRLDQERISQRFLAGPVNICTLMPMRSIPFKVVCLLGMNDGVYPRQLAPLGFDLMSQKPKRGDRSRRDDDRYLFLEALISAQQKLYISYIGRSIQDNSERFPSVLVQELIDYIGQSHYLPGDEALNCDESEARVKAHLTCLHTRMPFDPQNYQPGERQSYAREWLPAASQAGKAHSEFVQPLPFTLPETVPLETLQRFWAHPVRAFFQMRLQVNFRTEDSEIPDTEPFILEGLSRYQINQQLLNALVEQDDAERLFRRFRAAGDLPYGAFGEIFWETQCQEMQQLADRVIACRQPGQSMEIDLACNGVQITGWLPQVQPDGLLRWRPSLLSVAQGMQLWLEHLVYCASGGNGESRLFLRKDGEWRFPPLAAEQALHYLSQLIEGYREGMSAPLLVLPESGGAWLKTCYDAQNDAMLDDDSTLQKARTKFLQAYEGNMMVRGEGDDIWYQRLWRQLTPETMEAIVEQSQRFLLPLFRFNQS
# Sequence of Exodeoxyribonuclease V (P08394 whole entry): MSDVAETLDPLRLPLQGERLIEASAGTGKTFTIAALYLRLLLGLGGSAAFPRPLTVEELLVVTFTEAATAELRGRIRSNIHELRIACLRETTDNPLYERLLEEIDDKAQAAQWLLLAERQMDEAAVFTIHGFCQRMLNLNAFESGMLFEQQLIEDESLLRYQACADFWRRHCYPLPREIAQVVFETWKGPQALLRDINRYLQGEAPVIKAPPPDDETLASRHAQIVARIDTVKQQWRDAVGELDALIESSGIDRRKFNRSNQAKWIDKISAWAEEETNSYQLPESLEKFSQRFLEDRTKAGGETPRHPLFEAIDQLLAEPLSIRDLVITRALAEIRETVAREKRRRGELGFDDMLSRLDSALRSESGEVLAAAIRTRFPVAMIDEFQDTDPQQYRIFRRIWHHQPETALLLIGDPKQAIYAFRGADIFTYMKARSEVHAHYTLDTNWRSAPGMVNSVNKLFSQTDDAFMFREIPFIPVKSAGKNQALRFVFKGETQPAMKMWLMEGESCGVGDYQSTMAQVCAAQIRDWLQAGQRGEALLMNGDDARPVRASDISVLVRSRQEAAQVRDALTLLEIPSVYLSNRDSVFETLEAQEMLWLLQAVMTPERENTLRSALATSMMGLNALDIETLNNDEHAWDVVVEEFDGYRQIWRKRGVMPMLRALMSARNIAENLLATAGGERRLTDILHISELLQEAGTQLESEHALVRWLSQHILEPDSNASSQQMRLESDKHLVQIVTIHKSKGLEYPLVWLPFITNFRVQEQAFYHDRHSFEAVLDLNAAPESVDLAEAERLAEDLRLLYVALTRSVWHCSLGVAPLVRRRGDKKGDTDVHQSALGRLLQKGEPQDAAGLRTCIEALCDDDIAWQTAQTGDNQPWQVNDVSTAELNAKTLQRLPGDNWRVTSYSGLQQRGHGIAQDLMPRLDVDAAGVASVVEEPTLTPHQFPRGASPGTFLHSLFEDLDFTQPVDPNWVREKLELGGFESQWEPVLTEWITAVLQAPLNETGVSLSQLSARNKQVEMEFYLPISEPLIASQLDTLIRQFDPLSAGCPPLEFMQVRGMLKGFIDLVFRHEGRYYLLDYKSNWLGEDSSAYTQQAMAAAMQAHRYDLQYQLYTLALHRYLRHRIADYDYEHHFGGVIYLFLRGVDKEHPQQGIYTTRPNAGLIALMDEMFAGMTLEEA
# Sequence of CAAX prenyl protease 1 (P47154 whole entry): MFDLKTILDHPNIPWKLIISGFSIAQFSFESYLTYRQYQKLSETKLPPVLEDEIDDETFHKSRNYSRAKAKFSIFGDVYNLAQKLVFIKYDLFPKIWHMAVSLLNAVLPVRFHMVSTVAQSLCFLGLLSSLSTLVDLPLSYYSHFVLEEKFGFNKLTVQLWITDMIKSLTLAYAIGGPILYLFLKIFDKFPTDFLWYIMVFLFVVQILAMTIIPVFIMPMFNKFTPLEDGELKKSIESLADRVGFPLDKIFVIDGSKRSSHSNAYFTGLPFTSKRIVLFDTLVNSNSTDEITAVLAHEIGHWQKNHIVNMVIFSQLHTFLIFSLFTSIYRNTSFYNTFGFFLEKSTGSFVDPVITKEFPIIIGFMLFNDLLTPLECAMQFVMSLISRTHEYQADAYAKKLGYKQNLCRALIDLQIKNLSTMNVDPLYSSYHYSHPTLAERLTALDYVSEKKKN
smiles,measurement,setting,value
CCN(CC)CCCNC(=O)CCc1c(C)n(CC)c2cc(-c3ccccc3OC)nn2c1=O,AC50,[1],6.24 µM (active)
same,AC50,[2],13.1 µM (active)
Cc1cccc(C)c1NC(=O)c1ccc(-c2cccc(Cl)c2)o1,IC50,[3],> 25 µM (inactive)
same,IC50,[4],> 25 µM (inactive)
same,IC50,[5],> 25 µM (inactive)
same,IC50,[6],> 25 µM (inactive)
Fc1ccc(Nc2nnc(C(F)(F)F)s2)cc1Cl,IC50,[7],11 µM (active)
same,IC50,[8],96.8 µM (inactive)
same,IC50,[9],> 39.5 µM (inactive)
